Measurements published in patent US11352396B2, “Antimicrobial peptides and methods of using same” (Zoetis Services LLC, priority 2017, dated 2022).

Legend:
S. aureus ATCC 29213 = assay type: cell-based; parameters: key to SA 29213: MIC in μM (lowest conc. with no visible growth); conditions: S. aureus 29213, Table 6
Experimental: (§1) Peptides according to SEQ ID NOs as listed in Table 1 were prepared by a commercial manufacturer (CS Bio, Menlo Park, Calif.) using solid phase synthesis. Antimicrobial activity was assessed by determining the Minimal Inhibitory Concentration (MIC) against S. aureus and E. coli. Briefly, Microbroth MICs were performed using CLSI methodology (VET01-S2). For S. aureus and E. coli ATCC strains, TSA with 5% lysed horse blood agar was used for overnight culturing at 37° C. ambient air. A 0.5 mM stock for each peptide was made with cell culture water, 0.01% acetic acid and serially diluted and spotted (10 μL) in a 96-well plate for in assay dose titration concentration of 50 μM to 0.05 μM. 0.5 McFarland Standard of each strain was diluted 1:250 in Mueller-Hinton Broth (MHB). 90 μL of culture suspension was then added upon drug in the 96-well plate for overnight incubation for 18-20 hours. The MIC was determined visually at the first well of no visible growth at the corresponding concentration.

[1] = system: MRSP (Methicillin-Resistant Staphylococcus pseudintermedius); test: MIC against selected strains of MRSP; assay type: cell-based; parameters: key to MIC MRSP 72192 / MIC MRSP 76923 / MR 71994 / Mr 88493 / MR 72035 / MR 72192 / MR 76923 / MR 79882 / MR 80279 / MR 81926 / MR 86002 / MR 87665: MIC in μM (visual, first well with no growth); conditions: for MR 71994: MRSP strain 71994, Table 6; for MR 72035: MRSP strain 72035, Table 6; for MR 72192: MRSP strain 72192, Table 6; for MR 76923: MRSP strain 76923, Table 6; for MR 79882: MRSP strain 79882, Table 6; for MR 80279: MRSP strain 80279, Table 6; for MR 81926: MRSP strain 81926, Table 6; for MR 86002: MRSP strain 86002, Table 6; for MR 87665: MRSP strain 87665, Table 6; for Mr 88493: MRSP strain 88493, Table 6
In short: (§2)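 MIC read by eye as the first well showing no growth after 18–20 h incubation. Cultures at 0.5 McFarland were diluted 1:250 in Mueller-Hinton broth and exposed to peptide over 50 μM–0.05 μM in the assay, per CLSI VET01-S2 microbroth method.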

E. coli ATCC 25922 = assay type: cell-based; conditions: E. coli 25922, Table 6
Experimental: as §1

[2] = system: Canine-derived epithelial keratinocyte (CPEK) cells; assay type: cell-based
In short: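 Viability was read by CellTiter-Glo luminescence after overnight exposure (37 °C, 5% CO2) of canine keratinocytes to a peptide range of 50–0.05 μM. Percent effect used phosphate buffer as the zero control and 0.1% Triton X-100 as the full-effect control.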

[3] = system: MSSP (Methicillin-Susceptible Staphylococcus pseudintermedius); test: MIC against selected strains of MSSP; assay type: cell-based; parameters: MIC MSSP 49051 / MIC MSSP 81923 / MIC MSSP 84250 / Effect on MSSP 86000 / Effect on MSSP 72036 / Effect on MSSP 78032: unit not given beside the values; Effect on MSSP 71990 / Effect on MSSP 86001 / Effect on MSSP 72191 / Effect on MSSP 76986 / Effect on MSSP 77378 / Effect on MSSP 81923 / Effect on MSSP 84250 / Effect on MSSP 84658: unit: µM; conditions: for SP 49051: S. pseudintermedius 49051, Table 6; for Effect on MSSP 71990: strain 71990, Table 5; for Effect on MSSP 72036: strain 72036, Table 5; for Effect on MSSP 72191: strain 72191, Table 5; for Effect on MSSP 76986: strain 76986, Table 5; for Effect on MSSP 77378: strain 77378, Table 5; for Effect on MSSP 78032: strain 78032, Table 5; for Effect on MSSP 81923: strain 81923, Table 5; for Effect on MSSP 84250: strain 84250, Table 5; for Effect on MSSP 84658: strain 84658, Table 5; for Effect on MSSP 86000: strain 86000, Table 5; for Effect on MSSP 86001: strain 86001, Table 5
In short: as §2

cRBC = assay type: cell-based, canine
In short: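 Percent lysis, measured by absorbance at 405 nm, used 1% Triton X-100 as full effect and phosphate buffer as zero. Peptides spanned 50 µM–0.05 µM and were held with plasma-depleted washed erythrocytes at 37 °C for 1 h.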

| Substance | SA 29213 (S. aureus ATCC 29213) | MR 71994 [1] | MR 72035 [1] | MR 72192 [1] | MR 76923 [1] | MR 79882 [1] | MR 80279 [1] | MR 81926 [1] | MR 86002 [1] | MR 87665 [1] | Mr 88493 [1] | EC 25922 (E. coli ATCC 25922) [µM] | CPEK (50 μM) [2] | SP 49051 [3] | Effect on MSSP 71990 [3] | Effect on MSSP 72036 [3] | Effect on MSSP 72191 [3] | Effect on MSSP 76986 [3] | Effect on MSSP 77378 [3] | Effect on MSSP 78032 [3] | also measured |
| --- | --- | --- | --- | --- | --- | --- | --- | --- | --- | --- | --- | --- | --- | --- | --- | --- | --- | --- | --- | --- | --- |
| 29 (PKWCFRVCYRGICYRRCRD; Artificial Antimicrobial peptide) [compound 29] | 3.1 | 1.6 | 1.6 | 0.8 | 1.6 | 0.8 | 0.8 | 0.8 | 1.6 | 1.6 | 1.6 | 1.6 | 17.5 | 1.6 | 1.6 | 1.6 | 1.6 | 1.6 | 0.8 | 0.8 | Effect on MSSP 81923 [3]: 0.8; Effect on MSSP 84250 [3]: 0.8; Effect on MSSP 84658 [3]: 1.6; Effect on MSSP 86000 [3]: 1.6; Effect on MSSP 86001 [3]: 1.6; cRBC (50 μM) (cRBC): 68.2 |
| 112 (KWCFRVCYRGICYRRCKD; Artificial Antimicrobial peptide) [compound 112] | 3.1 | 1.6 | 1.6 | 1.6 | 1.6 | 0.8 | 0.8 | 1.6 | 1.6 | 1.6 | 1.6 | 1.6 | 14.2 | 1.6 | 1.6 | 1.6 | 1.6 | 1.6 | 0.8 | 1.6 | Effect on MSSP 81923 [3]: 1.6; Effect on MSSP 84250 [3]: 1.6; Effect on MSSP 84658 [3]: 1.6; Effect on MSSP 86000 [3]: 1.6; Effect on MSSP 86001 [3]: 1.6; cRBC (50 μM) (cRBC): 61.0 |
| 115 (GWCFRVCYRGICYRRCND; Artificial Antimicrobial peptide) [compound 115] | 3.1 | 1.6 | 1.6 | 1.6 | 1.6 | 0.8 | 1.6 | 1.6 | 1.6 | 1.6 | 1.6 | 0.8 | 5.1 | 1.6 | 1.6 | 1.6 | 1.6 | 1.6 | 0.8 | 1.6 | Effect on MSSP 81923 [3]: 1.6; Effect on MSSP 84250 [3]: 1.6; Effect on MSSP 84658 [3]: 1.6; Effect on MSSP 86000 [3]: 1.6; Effect on MSSP 86001 [3]: 1.6; cRBC (50 μM) (cRBC): 94.6 |
| 99 (KWCFFVCYRGICYRRCRD; Artificial Antimicrobial peptide) [compound 99] | 6.2 | 1.6 | 3.1 | 3.1 | 1.6 | 1.6 | 1.6 | 3.1 | 3.1 | 1.6 | 1.6 | 1.6 | 19.9 | 3.1 | 1.6 | 1.6 | 3.1 | 1.6 | 1.6 | 1.6 | Effect on MSSP 81923 [3]: 1.6; Effect on MSSP 84250 [3]: 3.1; Effect on MSSP 84658 [3]: 3.1; Effect on MSSP 86000 [3]: 3.1; Effect on MSSP 86001 [3]: 1.6; cRBC (50 μM) (cRBC): 100.0 |
| 114 (KWCFRVCYRGICYRRCRR; Artificial Antimicrobial peptide) [compound 114] | 6.2 | 3.1 | 3.1 | 3.1 | 3.1 | 1.6 | 1.6 | 3.1 | 3.1 | 3.1 | 3.1 | 1.6 | 11.9 | 3.1 | 1.6 | 3.1 | 3.1 | 1.6 | 1.6 | 3.1 | Effect on MSSP 81923 [3]: 3.1; Effect on MSSP 84250 [3]: 3.1; Effect on MSSP 84658 [3]: 3.1; Effect on MSSP 86000 [3]: 3.1; Effect on MSSP 86001 [3]: 1.6; cRBC (50 μM) (cRBC): 97.9 |
